The values that follow are results of earlier work, collected in US6635288B2, “Composition for suppressing cellular fibrousing and method for preparing an extract from loquat seeds” (Kochi Medical School, priority 2000, dated 2003).

Each structure is given as a SMILES string.

The subject of the data set is rats. Particulars: Carter et al., Biochem. Pharmacol. 29, 301 (1980).

In the case of `N#C[C@H](O[C@@H]1O[C@H](CO[C@@H]2O[C@H](CO)[C@@H](O)[C@H](O)[C@H]2O)[C@@H](O)[C@H](O)[C@H]1O)c1ccccc1` [amygdalin], the lethal dose is recorded as 600 mg.
